Laboratory results from US20240009174A1, “METHODS FOR DISRUPTING MITOCHONDRIAL UNFOLDED PROTEIN RESPONSE” (Health Research, Inc., priority 2020, published 2024).

Legend:
[1] = biological target: T1, HSP60-ClpP interaction (Homo sapiens, UniProt P10809); test: Proximity ligation assay (PLA) of HSP60-ClpP in PCa cells; format: cell-based; conditions: data not shown
T1 construct: endogenous in cells
Method: (§1) Identification of novel inhibitor of HSP60-ClpP interaction that disrupts UPR^mt function and induces PCa cell death. Having shown that two arms of UPR^mt, HSP60 chaperonin and ClpP protease interact and play critical role in PCa cell survival, an in silico analysis was performed and a small molecule library (developed by Enamine Ltd) was screened to identify drugs targeting the apical domain of HSP60 critical for its interaction with ClpP. 9 compounds (A-I) were identified and screened for their cell death inducing potential in PCa cells (data not shown). […] Colony forming ability of PCa cells was inhibited by DCEM1 treatment (data not shown).

[2] = test system: TKO prostate tumors; test: Spontaneous prostate tumor in PTEN:Rb:p53 knockout (TKO) animals; format: in vivo, mice
Method: FIG. 8. Pharmacological inhibition of HSP60-ClpP inhibit oncogenic signaling and PCa tumor growth in vivo. (A) LNCaP, PC-3 and 22RV1 cells were treated with DCEM1 and analyzed for c-Myc and EZH2 protein expression after 24 hours of treatment. (B) LNCaP, 22RV1 and VCaP cells were treated with DCEM1 and analyzed for AR and PSA protein expression after 24 hours of treatment. (C-D) 22RV1 cells (1×10^6 cells) were mixed with matrigel (50:50 v/v) and injected into each flank of SCID mice and treated with DCEM1 (60 mg/kg bw) through IP route twice weekly and tumors were harvested, photographed (C) and weighed (D) at 30 days. (E) DEVDase activity were analyzed in 22RV1 xenograft tumor tissue following DCEM1 treatment and represented as fold change compared to control. (F) 22RV1 xenograft tissue were sectioned and expression of ki67, c-Myc and EZH2 proteins were analyzed by Immunohistochemistry as described in material and methods. (G-H) PC-3 cells (1×10^6 cells) were mixed with matrigel (50:50 v/v) and injected into each flank of SCID mice and treated with DCEM1 (60 mg/kg bw) through IP route twice weekly and tumors were harvested, photographed (G) and weighed (H) at 35 days. (I) DEVDase activity were analyzed in PC-3 xenograft tumor tissue following DCEM1 treatment and represented as fold change compared to control. (J) PC-3 xenograft tumor tissue were fixed and sections were used for in situ PLA to analyze HSP60-ClpP interaction in these tissue samples. (K) PBCre4:PTEN F/F: Rb F/F: p53 F/F (TKO) animals were treated with either vehicle (Normal saline: DMSO: Kolliphor HS15; 70:5:200 v/v) or DCEM1 (60 mg/kg bw in vehicle) twice weekly from 10 weeks of age. All animals were sacrificed at 16 weeks of age and whole genitourinary tract was harvested and weighed. (L) PBCre4:PTEN F/F: Rb F/F: p53 F/F (TKO) animals were treated with either vehicle (Normal saline:DMSO:Kolliphor HS15; 70:5:200 v/v) or DCEM1 (60 mg/kg bw in vehicle) twice weekly from 10 weeks of age. All animals were sacrificed at 16 weeks of age and imaged by MRI. (M) PBCre4:PTEN F/F: Rb F/F: p53 F/F (TKO) animals were treated with either vehicle (Normal saline:DMSO:Kolliphor HS15; 70:5:200 v/v) or DCEM1 (60 mg/kg bw in vehicle) twice weekly from 10 weeks of age. […] All animals were sacrificed at 16 weeks of age and prostate tissue and tumors were harvested, whole cell lysate were prepared and analyzed for HSP60 and ClpP expression (N); c-Myc and EZH2 expression (0) and SYP and CK 8/18 expression (P) by immunoblotting. […]
Ablation of HSP60-ClpP interaction by DCEM1 downregulates c-Myc, EZH2 and AR as well as inhibits tumor growth in vivo. […] The effect of DCEM1 on 22RV1 (AR positive) and PC-3 (AR negative) xenografts growth in SCID mice was analyzed. […]

[3] = test system: LNCaP and PC-3 cells; test: mtDNA damage analysis; format: cell-based; conditions: 24 hours
Method: FIG. 6. Pharmacological inhibition of HSP60-ClpP interaction induces UPR^mt and PCa cell death. (A) Docking of DCEM1 into apical domain of HSP60. (B) LNCaP and PC-3 cells were treated with DCEM1 for 24 hours and HSP60-ClpP interaction was analyzed by co-immunoprecipitation assay. (C) LNCaP and PC-3 cells were treated with DCEM1 for 24 hours and mitoROS levels were analyzed by flow cytometry using mitoSOX dye. (D) LNCaP and PC-3 cells were treated with DCEM1 for 24 hours and poly-Ub protein levels were analyzed by western blotting. (E) LNCaP and PC-3 cells were treated with DCEM1 for 24 and 48 hours and apoptotic cell populations were analyzed by flow cytometry using Annexin V FITC/PI method as explained in materials and methods. In (E) top panel, the bars in each series from left to right are control, 5, 10, and 20, and in (E) bottom panel, the bars in each series from left to right are DMSO, 5, 10, and 20. (F) LNCaP and PC-3 cells were treated with DCEM1 for 24 and 48 hours and lysates were prepared and analyzed for DEVDase activity using specific peptide substrate. […] (G) LNCaP and PC-3 cells were pre-treated with SKQ1 followed by DCEM1 treatment and analyzed for cell viability by MTT assay. (H) LNCaP and PC-3 cells were treated with either DCEM1 or H2O2 (200 μM) for 24 hours and total DNA were isolated and analyzed for mtDNA damage as described in materials and methods. […]

[4] = test system: PCa cells; test: Colony forming ability of PCa cells; format: cell-based; conditions: data not shown
Method: as §1

[5] = 60 mg/kg bw twice weekly, 10 to 16 weeks of age, immunoblotting

T1 sequence (P10809 27-573): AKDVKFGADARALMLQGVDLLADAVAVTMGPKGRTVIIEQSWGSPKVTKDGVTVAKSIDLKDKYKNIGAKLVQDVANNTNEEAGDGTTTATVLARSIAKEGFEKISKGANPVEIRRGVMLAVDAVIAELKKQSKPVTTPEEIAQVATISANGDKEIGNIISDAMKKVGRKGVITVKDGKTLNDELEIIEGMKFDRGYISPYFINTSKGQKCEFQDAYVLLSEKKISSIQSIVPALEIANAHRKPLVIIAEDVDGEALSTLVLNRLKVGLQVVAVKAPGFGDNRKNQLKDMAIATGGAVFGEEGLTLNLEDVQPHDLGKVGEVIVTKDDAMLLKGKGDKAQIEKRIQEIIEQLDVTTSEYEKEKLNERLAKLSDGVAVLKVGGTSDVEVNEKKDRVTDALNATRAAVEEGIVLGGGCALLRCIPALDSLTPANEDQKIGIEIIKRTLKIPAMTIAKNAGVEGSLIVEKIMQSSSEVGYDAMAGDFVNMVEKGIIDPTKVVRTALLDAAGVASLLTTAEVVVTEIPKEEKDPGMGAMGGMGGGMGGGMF

CCOc1cc(CNCc2nc3ccccc3[nH]2)ccc1OCc1cccs1 [DCEM1]
HSP60-ClpP interaction by PLA [1]: efficiently inhibited HSP60-ClpP interaction
prostate tumor growth in TKO mice (GU weight, tumor volume by MRI) ([2]; 60 mg/kg bw twice weekly from 10 weeks to 16 weeks of age): significantly inhibited prostate tumor growth
HSP60 and ClpP expression in TKO prostatic tissue [2, 5]: downregulated HSP60 and ClpP expression
SYP and CK 8/18 expression in TKO tumor tissues [2, 5]: downregulated SYP and up regulated CK 8/18 expression
c-Myc and EZH2 in TKO prostatic tissue [2, 5]: depletion of c-Myc and EZH2
mtDNA damage [3]: Severe mtDNA damage
colony forming ability of PCa cells [4]: inhibited
